# Measurements reported in article PMC10975012, “The Active Glucuronide Metabolite of the Brain Protectant IMM-H004 with Poor Blood–Brain Barrier Permeability Demonstrates a High Partition in the Rat Brain via Multiple Mechanisms” (Pharmaceutics, 2024).
# Columns and labels:
# [1] = test system: OATP; experiment: Identification of transporters using inhibitors in hCMEC/D3 cells: OATP; format: cell-based, human; settings: substrate 10 μmol/L, inhibitor 100 μmol/L
# Experimental: The toxicity of all compounds, including inhibitors and substrates, toward hCMEC/D3 cells, was assessed using the 3-(4,5-Dimethylthiazol-2-yl)-2,5-diphenyltetrazolium bromide (MTT) reduction assay as described previously. To assess the effects of pyrilamine-sensitive proton-coupled organic cation (H^+/OC) antiporter, organic anion transporter (OAT), organic anion-transporting polypeptides (OATPs), organic cation transporter (OCT), and novel organic cation–carnitine transporter (OCTN) inhibitors on the uptake process, IMM-H004 or IMM-H004G (10 µmol/L) combined with the inhibitors were added to the medium after preincubating the cells with the inhibitors for 30 min. For evaluating the impact of the multidrug and toxin extrusion transporter (MATE), P-glycoprotein (P-gp), multidrug resistance protein (MRP), and breast cancer resistance protein (BCRP) on the uptake, IMM-H004 or IMM-H004G (10 µmol/L) was preincubated with the cells for 2 h before the addition of the inhibitors. After removing the supernatant, the cells were washed twice with prewarmed HBSS and incubated with fresh HBSS for 20 min. At the end of incubation, the supernatants were collected. […] The protein content of the lysed cells was determined using a bicinchoninic acid (BCA) assay kit (Beyotime Inc., Shanghai, China). The results were expressed as a percentage of the vehicle control.
# [2] = biological target: T1, OATP1B3 (Homo sapiens, UniProt Q9NPD5); experiment: Uptake in MDCKⅡ-OATP1B3 cells; format: cell-based; settings: MDCKⅡ-OATP1B3, 30, 60 µmol/L, 20 or 40 min
# T1 construct: expressed in transfected cells; host or cells: MDCKII
# T1 sequence (Q9NPD5 1-702): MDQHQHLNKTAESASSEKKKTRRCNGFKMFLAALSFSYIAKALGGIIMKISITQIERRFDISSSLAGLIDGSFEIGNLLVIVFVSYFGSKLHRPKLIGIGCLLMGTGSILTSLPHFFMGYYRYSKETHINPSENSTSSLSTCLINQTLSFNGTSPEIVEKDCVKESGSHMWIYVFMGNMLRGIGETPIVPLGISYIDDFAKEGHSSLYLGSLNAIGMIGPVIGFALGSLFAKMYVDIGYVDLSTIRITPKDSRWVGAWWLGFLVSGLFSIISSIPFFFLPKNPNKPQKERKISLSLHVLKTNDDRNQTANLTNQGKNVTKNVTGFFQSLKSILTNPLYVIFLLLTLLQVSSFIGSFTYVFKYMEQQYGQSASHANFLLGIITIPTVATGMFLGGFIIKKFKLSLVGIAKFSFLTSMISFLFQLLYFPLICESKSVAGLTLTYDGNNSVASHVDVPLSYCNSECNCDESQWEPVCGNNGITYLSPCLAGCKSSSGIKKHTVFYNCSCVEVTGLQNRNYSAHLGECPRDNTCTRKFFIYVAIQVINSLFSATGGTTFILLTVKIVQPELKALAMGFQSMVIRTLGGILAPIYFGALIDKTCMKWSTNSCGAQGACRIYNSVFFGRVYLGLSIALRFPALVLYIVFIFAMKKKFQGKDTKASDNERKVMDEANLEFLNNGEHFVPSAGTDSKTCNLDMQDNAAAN
# Experimental: Figure S4 Uptake of IMM-H004G in MDCKⅡ-OATP1B1 and MDCKⅡ-OATP1B3 cells. (a)
# RSV (rosuvastatin, 30 µmol/L) is used as a positive group in MDCKⅡ-OATP1B1 cells. (b)
# E17βG (estradiol-17β-glucuronide, 5 µmol/L) is used as a positive group in
# MDCKⅡ-OATP1B3 cells. (c) IMM-H004G (30, 60 µmol/L) was incubated with
# MDCKⅡ-OATP1B1 and MDCKⅡ-OATP1B3 cells for 20 or 40 min. The OATP
# pan-inhibitor CsA (cyclosporin A) is 10 µmol/L. n=3 for positive substrates, and n=2 for
# IMM-H004G. ***p < 0.001, **p < 0.01, *p < 0.05 vs. control group. ns, not significant.
# (1 picture or pasted object on this page, not shown here)
# [3] = test system: HEB cells; experiment: In vitro metabolism in human brain cells (HEB); format: in vitro ADME; settings: IMM-H004 1–100 μmol/L, up to 5 h
# Experimental: (§1) SH-SY5Y, HEB, and hCMEC/D3 cells were utilized to investigate the in vitro metabolism of IMM-H004 and IMM-H004G in the brain. SH-SY5Y and HEB cells were cultured routinely in Dulbecco’s modified Eagle’s medium (DMEM) containing 10% fetal bovine serum and a 100 U/mL penicillin–100 μg/mL streptomycin solution. hCMEC/D3 cells were seeded on collagen type I coated 24-well plates and cultured in EndoGRO™-MV complete medium following the manufacturer’s guidelines. The cells were incubated at 37 °C, with 5% CO2, and were maintained in a humidified environment. Once the confluence reached 70–80%, the cells were digested using a 0.25% trypsin–EDTA solution, centrifuged at 200× g for 5 min, and then resuspended in a fresh culture medium. For each experiment, after seeding and 24 h incubation, the cells were washed twice with a prewarmed culture medium, and then IMM-H004 or IMM-H004G (1–100 μmol/L) dissolved in the culture medium was added. Incubation was carried out at 37 °C for 5 h or 24 h. After incubation, the supernatants were collected. Subsequently, the cells were washed with cold HBSS three times and lysed in a RIPA lysis buffer (Beyotime Inc., Shanghai, China). The concentrations of IMM-H004 and IMM-H004G were determined by liquid chromatography with tandem mass spectrometry (LC-MS/MS).
# [4] = test system: SH-SY5Y cells; experiment: In vitro metabolism in human brain cells (SH-SY5Y); format: in vitro ADME; settings: IMM-H004 1–100 μmol/L
# Experimental: as §1
# [5] = test system: hCMEC/D3 cells; experiment: In vitro metabolism in human brain cells (hCMEC/D3); format: in vitro ADME; settings: IMM-H004 1–100 μmol/L
# Experimental: as §1
SMILES,reduction of uptake by OATP inhibitor rifamycin [1],uptake increase in OATP1B3-overexpressing cells compared to control cells [2],production of IMM-H004G from IMM-H004 [3],production of IMM-H004G from IMM-H004 [4],production of IMM-H004G from IMM-H004 [5]
COc1cc(OC2OC(C(=O)O)C(O)C(O)C2O)cc2oc(=O)c(N3CCN(C)CC3)c(C)c12 (centres unmarked) [IMM-H004G],39.6%,did not exceed a tenfold increase,–,–,–
COc1cc(O)cc2oc(=O)c(N3CCN(C)CC3)c(C)c12 [IMM-H004],–,–,depended on both time and concentration,not detected,not detected
